Data from patent US8673968B2, “Progesterone antagonists” (Evestra, Inc., priority 2009, dated 2014).

How the values were obtained:
[1] = target: T1, progesterone receptor-LBD (Homo sapiens, UniProt P06401); experiment: Progesterone Antagonist Screen, activated by control agonist R5020 (GENEBLAZER beta-lactamase reporter); format: cell-based; conditions: progesterone receptor-LBD-UAS-bla HEK 293T cells; control agonist R5020 at EC80; read-out: Progesterone Antagonist Inhibition IC50
T1 construct: host or cells: HEK 293T (progesterone receptor-LBD-UAS-bla)
T1 sequence (P06401 679-913 limits assumed): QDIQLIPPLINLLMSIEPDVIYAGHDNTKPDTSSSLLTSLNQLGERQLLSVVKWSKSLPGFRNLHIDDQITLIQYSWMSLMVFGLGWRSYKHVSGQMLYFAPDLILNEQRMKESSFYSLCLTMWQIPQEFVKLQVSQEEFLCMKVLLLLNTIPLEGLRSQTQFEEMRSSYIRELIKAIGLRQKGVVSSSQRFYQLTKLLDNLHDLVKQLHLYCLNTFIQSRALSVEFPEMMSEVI
Procedure: (§1) Determination of the agonist/antagonist nature of the test compounds was carried out using Invitrogen's SELECTSCREEN, a cell-based nuclear receptor profiling service which uses GENEBLAZER a beta-lactamase reporter technology. This assay uses a Beta-lactamase cDNA under transcriptional control of an Upstream Activator Sequence (UAS). The UAS is activated by the GAL4 transcription factor DNA binding domain (DBD), which is expressed as a fusion protein with the target receptor ligand binding domain (LBD). Upon ligand binding, the GAL4(DBD)-NR(LDB) binds to the UAS, which controls transcription of Beta-lactamase. Beta-lactamase cleaves a special engineered fluorescent substrate which results in a change in the measured fluorescence wavelength.
The generalized protocol used for the Progesterone Antagonist Screen, activated by control Agonist R5020 is as follows:
32 μL of cell suspension is added to the wells which is then pre-incubated at 37 C/5% CO2 in a humidified incubator with test compounds and control antagonist titration for 30 minutes. 4 μL of a 10× control agonist (see above) at the predetermined EC80 concentration is added to wells containing the control antagonist or test compounds. The plate is incubated for 16-24 hours at 37 C/5% CO2 in a humidified incubator. 8 μl of 1 μM Substrate Loading Solution is added to each well and the plate is incubated for 2 hours at room temperature. The plate is then read on a fluorescence plate reader (Tecan Safire).

[2] = target: T1, progesterone receptor-LBD; experiment: Progesterone Agonist screen (SELECTSCREEN GENEBLAZER beta-lactamase reporter); format: cell-based; conditions: progesterone receptor-LBD-UAS-bla HEK 293T cells; read-out: Progesterone Agonist Activation IC50
Procedure: as §1
The plate is incubated for 16-24 hours at 37° C./5% CO2 in a humidified incubator. […] The plate is then read on a fluorescence plate reader (Tecan Safire).

[3] = target: T2, glucocorticoid receptor-LBD (Homo sapiens, UniProt P04150); experiment: Glucocorticoid Antagonist Screen activated by control agonist Dexamethasone (GENEBLAZER beta-lactamase reporter); format: cell-based; conditions: glucocorticoid receptor-LBD-UAS-bla HEK 293T cells, read-out: Glucocorticoid Antagonist Inhibition IC50
T2 construct: host or cells: HEK 293T (glucocorticoid receptor-LBD-UAS-bla)
T2 sequence (P04150 524-758 limits assumed): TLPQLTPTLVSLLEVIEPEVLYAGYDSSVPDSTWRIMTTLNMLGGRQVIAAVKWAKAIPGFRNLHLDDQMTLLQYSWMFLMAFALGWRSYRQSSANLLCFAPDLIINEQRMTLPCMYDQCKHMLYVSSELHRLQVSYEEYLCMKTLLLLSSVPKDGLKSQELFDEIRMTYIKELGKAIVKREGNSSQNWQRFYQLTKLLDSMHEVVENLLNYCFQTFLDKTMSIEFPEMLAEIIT
Procedure: as §1

[4] = tested on: progesterone receptor positive breast cancer; conditions: rat model, recent study; cited from earlier work

Structure (SMILES) | IC50 [1] [nM] | other results
C=C(C)c1ccc(C2CC3(C)C(CCC34OCCC4=C(F)F)C3CCC4=CC(=O)CCC4=C23)cc1 (stereo not drawn) [Compound 1d, 21,21-difluoro-11β-(4′-isopropenylphenyl)-17,23-epoxy-19,24-dinor-17α-chola-4,9,20-triene] | 0.413 | –
CC12CC(c3ccc(-c4ccoc4)cc3)C3=C4CCC(=O)C=C4CCC3C1CCC21OCCC1=C(F)F (stereo not shown) [Compound 1f] | 0.864 | –
CC(=O)c1ccc(C2CC3(C)C(CCC34OCCC4=C(F)F)C3CCC4=CC(=O)CCC4=C23)cc1 (stereo not drawn) [Compound 1a, 21,21-difluoro-11β-(4′-acetyl)phenyl-17,23-epoxy-19,24-dinor-17α-chola-4,9,20-triene] | 0.265 | IC50 [2]: > 10 nM; IC50 [3]: > 10 nM
CN(C)c1ccc(C2CC3(C)C(CCC34OCCC4=C(F)F)C3CCC4=CC(=O)CCC4=C23)cc1 (stereo not drawn) [Compound 1b, 21,21-difluoro-11β-[4′-(dimethylamino)phenyl]-17,23-epoxy-19,24-dinor-17α-chola-4,9,20-triene] | 0.178 | –
CC12CC(c3ccc(-c4cccnc4)cc3)C3=C4CCC(=O)C=C4CCC3C1CCC21OCCC1=C(F)F (stereo not drawn) [Compound 1e, 21,21-difluoro-11β-[4′-(3′-pyridyl)phenyl]-17,23-epoxy-19,24-dinor-17α-chola-4,9,20-triene] | 0.28 | –
CC(=O)c1ccc([C@H]2C[C@@]3(C)[C@@H](CC[C@@]3(O)C(F)(F)C(F)(F)F)[C@@H]3CCC4=CC(=O)CCC4=C32)cc1 [ZK 230211, Lonaprisan, reference compound] | 0.798 | IC50 [2]: > 10 nM; IC50 [3]: > 10 nM
COc1ccc(C2CC3(C)C(CCC34OCCC4=C(F)F)C3CCC4=CC(=O)CCC4=C23)cc1 (stereo not drawn) [Compound 1c, 21,21-difluoro-11β-(4′-methoxyphenyl)-17,23-epoxy-19,24-dinor-17α-chola-4,9,20-triene] | 0.344 | –
COCC(=O)[C@@]1(OC(C)=O)CC[C@H]2[C@@H]3CCC4=CC(=O)CCC4=C3[C@@H](c3ccc(N(C)C)cc3)C[C@@]21C [PROELLEX] | – | development of new tumors [4]: decrease in the development of new tumors; tumor size [4]: regression of tumor size
